Data as given in publication PMC11139994, “Inflammation causes insulin resistance in mice via interferon regulatory factor 3 (IRF3)-mediated reduction in FAHFA levels” (Nature Communications, 2024).
pIC50: −log10 of the molar value.

How the values were obtained:
[1] = molecular target: T1, AIG1 (androgen induced gene 1) (Mus musculus, UniProt Q9D8B1); assay: competitive gel-based ABPP (FP-Rh) in mouse brain membrane proteome; also MS-based ABPP and in vivo target engagement; type: biochemical
T1 construct: endogenous AIG1 in mouse brain membrane proteome
T1 sequence (Q9D8B1 1-238): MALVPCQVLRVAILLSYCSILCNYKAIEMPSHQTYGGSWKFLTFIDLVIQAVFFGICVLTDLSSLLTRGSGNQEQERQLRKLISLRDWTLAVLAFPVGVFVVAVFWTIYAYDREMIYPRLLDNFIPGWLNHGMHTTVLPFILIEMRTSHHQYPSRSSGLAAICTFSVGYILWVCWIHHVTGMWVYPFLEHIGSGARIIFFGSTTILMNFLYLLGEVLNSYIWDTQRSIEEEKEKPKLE

[2] = molecular target: T2, ABHD6 (Mus musculus, UniProt Q8R2Y0); assay: competitive MS-based ABPP-ReDiMe (FP-biotin) in mouse brain proteome (off-target); type: cell-based
T2 construct: endogenous ABHD6 in mouse brain proteome
T2 sequence (Q8R2Y0 1-336): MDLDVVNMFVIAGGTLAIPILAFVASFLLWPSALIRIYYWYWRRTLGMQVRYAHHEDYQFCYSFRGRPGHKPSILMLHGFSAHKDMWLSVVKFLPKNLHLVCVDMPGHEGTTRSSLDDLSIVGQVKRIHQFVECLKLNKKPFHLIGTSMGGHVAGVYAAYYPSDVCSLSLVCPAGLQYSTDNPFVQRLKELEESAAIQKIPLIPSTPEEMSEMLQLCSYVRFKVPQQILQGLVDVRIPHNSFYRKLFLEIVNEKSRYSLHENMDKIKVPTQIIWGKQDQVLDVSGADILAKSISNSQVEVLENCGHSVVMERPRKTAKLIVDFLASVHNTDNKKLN

CN(c1ccn(C(=O)N2CCc3ccc(Oc4ccccc4)cc3C2)n1)S(C)(=O)=O [ABD-110, N-methyl-N-(1-(7-phenoxy-1,2,3,4-tetrahydroisoquinoline-2-carbonyl)-1H-pyrazol-3-yl)methanesulfonamide]
pIC50 [1]: 8.80 | competitive MS-based ABPP-ReDiMe (FP-biotin) in mouse brain proteome (off-target) [2]: with only a few off-targets detected, including ABHD6 and several highly homologous, mouse-specific carboxylesterases (CESs)
